Data as given in PubChem BioAssay AID2060492 (Molecular Pharmacology Branch, DTP, NCI, 2025).
pIC50: −log10 of the molar value. Several values for one entry are separate records, joined by “and”; a condition that tells them apart may be missing. Equal entries are not always repeated.

System: 695427-040-R-J1-PDC complex spheroids, viability percent T/C
Test: Anticancer human tumor 695427-040-R-J1-PDC patient-derived colon adenocarcinoma cell line growth inhibition [GQUAD]
Conditions: for viability, T/C: stronger effect = lower value
Text: DNA G-quadruplex Stabilizer Agents in Combinations in Complex Spheroids
A high-throughput screen of multi-cell type tumor spheroids was designed to identify active combinations of DNA G-quadruplex stabilizer agents and targeted small molecules. Complex spheroids include a stromal component modeled by human endothelial cells (HUVEC) and fibroblasts modeled by human mesenchymal stem cells (MSCs). The concentration ranges selected for each drug and investigational agent were based upon clinically achievable concentrations if the clinical Cmax of the agent was known.
Compounds. The drugs and investigational agents: pidnarulex (CX-5461; NSC782164), APTO-253 (NSC789042), BRACO-19 (NSC847499), peposertib (NSC802822), ceralasertib (NSC780249), elimusertib (NSC800525), camonsertib (NSC841442), AZD-1390 (NSC803789), olaparib (NSC753686), talazoparib (NSC767125), ART-558 (NSC835418), sotorasib (NSC818433), MRTX-1133 (NSC836407), SN-38 (NSC673596), topotecan (NSC609699), etoposide (NSC141540), doxorubicin (NSC123127), gemcitabine (NSC613327), 5-fluorouracil (NSC19893), paclitaxel (NSC125973), vemurafenib (NSC761431), panobinostat (NSC761190), R-306465 (JNJ-16241199; NSC773264), adavosertib (NSC754352), TP-3654 (NSC805149), carboplatin (NSC241240), KSQ-4279 (NSC840948), and staurosporine (NSC755774) were obtained from the National Cancer Institute (NCI) Developmental Therapeutics Program Chemical Repository (34). The FDA-approved anticancer drug set is available from the NCI Developmental Therapeutics Program. […] The stock solutions were prepared in dimethyl sulfoxide (DMSO, Sigma-Aldrich, St. Louis, MO, cat. D2650) at 800-fold the tested concentration and stored at -70 degrees C prior to their use. All drugs and investigational agents were tested over a range starting from a high concentration at or near the clinical Cmax and decreasing in half-log increments. If the clinical Cmax for an agent had not been determined, the highest concentration tested was 10 microM.
2.3 Cell Culture. All cells were maintained in an incubator at 37 degrees C and 5% CO2 with 95% humidity. The PDC lines were cultured according to standard operating procedures established by the NCI PDMR. All PDCs were thawed and cultured in Matrigel-coated flasks prepared with a working solution of 1X Ham's F-12 nutrient mix, without supplementation (Invitrogen, cat. 11765054), 100 U/mL penicillin-streptomycin (Invitrogen, cat. 15140122), and 2.5% Matrigel (Corning Inc., cat. 354248) for the first three passages. The 857933-349-R-J2-PDC line was cultured in 6C/Colon 1B media, which includes advanced DMEM/F-12 (Thermo Fisher Scientific, cat. 12634028), 10 mM HEPES (Thermo Fisher Scientific, cat. 15630080), 1X GlutaMAX supplement (Thermo Fisher Scientific, cat. 35050061), 0.1 mg/mL primocin (InvivoGen, cat. ant-pm-2), 10% defined fetal bovine serum, heat inactivated (HyClone Laboratories Inc., cat. SH30070.03HI), 50% L-WRN conditioned media (ATCC, cat. CRL-3276), 1.25 mM N-Acetyl-L-cysteine (Sigma-Aldrich, cat. A9165), 10 mM nicotinamide (Sigma-Aldrich, cat. N0636), 1X B-27 supplement (Thermo Fisher Scientific, cat. 17504044), 1X N-2 supplement (Thermo Fisher Scientific, cat. 17502048), 10 microM Y-27632 dihydrochloride (Tocris Bioscience, cat. 1254), and 50 ng/mL human EGF recombinant protein (Thermo Fisher Scientific, cat. PHG0311). The 485176-168-R4-J1-PDC line was cultured in Panc media, which includes all 6C/Colon 1B media components plus 100 ng/mL human FGF-10 (Thermo Fisher Scientific, cat. 100-26), 500 nM SB-431542 (Selleckchem, cat. S1067), and gastrin (Tocris, cat. 3006).
[…]
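Also: spheroids exposed to compounds for seven days before readout.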

| SMILES | viability, T/C (compound 0.0316 µM) | viability, T/C (compound 0.1 µM) | viability, T/C (compound 0.316 µM) | viability, T/C (compound 1 µM) | viability, T/C (compound 3.16 µM) | viability, T/C (compound 10 µM) | pIC50 (curve of compound) | viability, T/C (compound 0.000999 µM) | viability, T/C (compound 0.00316 µM) | viability, T/C (compound 0.00999 µM) | viability, T/C (compound 0.0999 µM) | pIC50 (compound alone, run of 04/22/2024) |
| --- | --- | --- | --- | --- | --- | --- | --- | --- | --- | --- | --- | --- |
| C#Cc1c(F)ccc2cc(O)cc(-c3ncc4c(N5CC6CCC(C5)N6)nc(OCC56CCCN5CC(F)C6)nc4c3F)c12 (configuration not stated) | 95.2% and 101% and 104% | 102% and 103% and 111% | 95.2% and 99.6% and 102% | 94.3% and 81.3% and 97.2% | 56.7% and 17.5% and 103% | 59% and 15.6% and 82.1% | < 5.00 and 5.75 |  |  |  |  |  |
| C=CC(=O)N1CCN(c2nc(=O)n(-c3c(C)ccnc3C(C)C)c3nc(-c4c(O)cccc4F)c(F)cc23)C(C)C1 (configuration not stated) | 97.2% and 103% and 104% | 93.4% and 97.8% and 82.5% | 103% and 101% and 102% | 98.8% and 105% and 85.6% | 92.6% and 110% and 68.9% | 90.5% and 106% and 97.2% | < 5.00 |  |  |  |  |  |
| C=CCn1c(=O)c2cnc(Nc3ccc(N4CCN(C)CC4)cc3)nc2n1-c1cccc(C(C)(C)O)n1 | 102% and 100% and 86.2% | 105% and 85.8% and 89.5% | 107% and 86.4% and 87.7% | 105% and 80.5% and 61.6% | 107% and 68.6% and 54.9% | 66.5% and 54.9% and 35.4% | < 5.00 and 5.50 |  |  |  |  |  |
| CC(=O)O[C@H]1C(=O)[C@@]2(C)[C@H]([C@H](OC(=O)c3ccccc3)[C@]3(O)C[C@H](OC(=O)[C@H](O)[C@@H](NC(=O)c4ccccc4)c4ccccc4)C(C)=C1C3(C)C)[C@]1(OC(C)=O)CO[C@@H]1C[C@@H]2O | 92.5% and 97.5% and 84.8% | 90.5% and 92.7% and 88.8% | 72.9% and 89.3% and 82.4% |  |  |  |  |  |  |  |  |  |
| CC(C)(O)C1CCC(Nc2ccc3ncc(-c4cccc(C(F)(F)F)c4)n3n2)CC1 (configuration not stated) | 109% and 99.2% and 78.5% | 101% and 97.4% and 88.4% | 111% and 94.6% and 101% | 105% and 80.1% and 66.9% | 97.6% and 16% and 12.7% | 87.6% and 15.5% and 13.5% | < 5.00 and 5.76 and 5.84 |  |  |  |  |  |
| CC(C)n1c(=O)n(C)c2cnc3cc(F)c(-c4ccc(OCCCN5CCCCC5)nc4)cc3c21 | 97.4% and 115% and 95.5% | 102% and 97.8% and 101% | 110% and 102% and 97.8% | 118% and 115% and 110% | 74% and 109% and 84.6% | 57.9% and 69.9% and 56.8% | < 5.00 |  |  |  |  |  |
| CC1COCCN1c1cc(-c2ccnn2C)c2ccnc(-c3ccn[nH]3)c2n1 (configuration not stated) | 88.2% and 92.1% and 81.5% | 71.7% and 79.9% and 54.3% | 50.6% and 61.6% and 45.6% | 34.4% and 49.4% and 35.4% | 27.7% and 46.1% and 23% | 26.8% and 40.4% and 24.8% | 6.50 and 6.01 and 6.74 |  |  |  |  |  |
| CC1COCCN1c1cc(C2(O)CC3CCC(C2)O3)c2cnn(-c3ccn[nH]3)c2n1 (configuration not stated) | 79.3% and 91.3% and 95% | 66.4% and 78.3% and 88.3% | 54.6% and 68.4% and 73.6% | 41.1% and 52% and 56.7% | 23.6% and 30.7% and 47.5% | 20% and 23.6% and 36.8% | 6.37 and 6.00 and 5.68 |  |  |  |  |  |
| CC1COCCN1c1cc(C2(S(C)(=N)=O)CC2)nc(-c2ccnc3[nH]ccc23)n1 (configuration not stated) | 98.2% and 95.8% and 104% | 80.6% and 102% and 90.9% | 82% and 94.1% and 92.3% | 85.7% and 94.6% and 87.3% | 59.1% and 88.3% and 68.5% | 55.5% and 73.5% and 54.2% | < 5.00 |  |  |  |  |  |
| CCCS(=O)(=O)Nc1ccc(F)c(C(=O)c2c[nH]c3ncc(-c4ccc(Cl)cc4)cc23)c1F | 96% and 108% and 99.2% | 92.3% and 101% and 87.5% | 90.3% and 110% and 114% | 79.9% and 102% and 101% | 65.4% and 116% and 103% | 58.2% and 67.2% and 40.1% | < 5.00 and 5.08 |  |  |  |  |  |
| CC[C@@]1(O)C(=O)OCc2c1cc1n(c2=O)Cc2cc3c(CN(C)C)c(O)ccc3nc2-1 | 93.2% and 102% and 89.2% |  | 82.7% and 90.3% and 80.3% |  |  |  | < 6.50 | 93.2% and 113% and 101% | 97.2% and 103% and 94.8% | 109% and 96.7% and 103% | 81.3% and 103% and 88.3% |  |
| CCc1c2c(nc3ccc(O)cc13)-c1cc3c(c(=O)n1C2)COC(=O)[C@]3(O)CC | 73.2% and 80.9% and 61% |  | 41.9% and 54.7% and 34.1% |  |  |  | 6.76 and < 6.50 and 7.29 | 94.6% and 102% and 82.8% | 74.4% and 96.6% and 88.9% | 82.1% and 85% and 83.3% | 54.9% and 68.1% and 33.5% |  |
| CN(C)c1ccc(Nc2c3ccc(NC(=O)CCN4CCCC4)cc3nc3cc(NC(=O)CCN4CCCC4)ccc23)cc1 | 104% [middle of 12 runs] | 102% [middle of 12 runs] | 104% [middle of 12 runs] | 99.1% [middle of 12 runs] | 103% [middle of 12 runs] | 92.2% [middle of 12 runs] |  |  |  |  |  | < 5.00 |
